The values that follow come from PubChem BioAssay AID652113 (The Scripps Research Institute Molecular Screening Center, 2013).

In the series the test system is PAMPA artificial membrane permeability, LC-MS, 5 h. In words: PubChem AID 652113. Particulars: active compounds read high.

Turning to `COC(=O)c1cc(Br)cnc1N1CCC(NC2CCCCC2)C(O)C1` (stereo unspecified), the permeability was 16.5 ×10⁻⁶ cm/s.
